Assay results from patent US20160250354A1, “METHODS AND COMPOSITIONS FOR DELIVERY OF ACTIVE AGENTS” (TEKMIRA PHARMACEUTICALS CORPORATION, priority 2010, published 2016).

Test system: Factor VII
Test: in vivo rodent Factor VII silencing model (serum/plasma FVII after i.v. FVII siRNA lipid formulation)
Parameters: species or system C57BL/6 mice
Experimental: C57BL/6 mice (Charles River Labs, MA) receive either saline or siRNA in desired formulations via tail vein injection at a volume of 0.01 mL/g. At various time points post-administration, animals are anesthetized by isofluorane inhalation and blood is collected into serum separator tubes by retro orbital bleed. Serum levels of Factor VII protein are determined in samples using a chromogenic assay (Coaset Factor VII, DiaPharma Group, OH or Biophen FVII, Aniara Corporation, OH) according to manufacturer protocols. A standard curve is generated using serum collected from saline treated animals. In experiments where liver mRNA levels were assessed, at various time points post-administration, animals are sacrificed and livers are harvested and snap frozen in liquid nitrogen. Frozen liver tissue is ground into powder. Tissue lysates were prepared and liver mRNA levels of Factor VII and apoB are determined using a branched DNA assay (QuantiGene Assay, Panomics, CA).
Factor VII (FVII), a prominent protein in the coagulation cascade, is synthesized in the liver (hepatocytes) and secreted into the plasma. FVII levels in plasma can be determined by a simple, plate-based colorimetric assay. As such, FVII represents a convenient model for determining sirna-mediated downregulation of hepatocyte-derived proteins, as well as monitoring plasma concentrations and tissue distribution of the nucleic acid lipid particles and siRNA.
The cationic lipids shown above are used to formulate liposomes containing the AD-1661duplex using an in-line mixing method, as described in U.S. provisional patent application 61/228,373, which is incorporated by reference in its entirety. Lipid particles are formulated using the following molar ratio: 50% Cationic lipid/10% distearoylphosphatidylcholine (DSPC)/38.5% Cholesterol/1.5% PEG-DMG (1-(monomethoxy-polyethyleneglycol)-2,3-dimyristoylglycerol, with an average PEG molecular weight of 2000).
C57BL/6 mice (Charles River Labs, MA) receive either saline or formulated siRNA via tail vein injection. At various time points after administration, serum samples are collected by retroorbital bleed. Serum levels of Factor VII protein are determined in samples using a chromogenic assay (Biophen FVII, Aniara Corporation, OH). To determine liver mRNA levels of Factor VII, animals are sacrificed and livers were harvested and snap frozen in liquid nitrogen. Tissue lysates are prepared from the frozen tissues and liver mRNA levels of Factor VII are quantified using a branched DNA assay (QuantiGene Assay, Panomics, CA).
FVII activity is evaluated in FVII siRNA-treated animals at 48 hours after intravenous (bolus) injection in C57BL/6 mice. FVII is measured using a commercially available kit for determining protein levels in serum or tissue, following the manufacturer's instructions at a microplate scale. FVII reduction is determined against untreated control mice, and the results are expressed as % Residual FVII. Two dose levels (0.05 and 0.005 mg/kg FVII siRNA) are used in the screen of each novel liposome composition.
Cationic lipid containing particles are made using the preformed vesicle method. Cationic lipid, DSPC, cholesterol and PEG-lipid were solubilized in ethanol at a molar ratio of 40/10/40/10, respectively. The lipid mixture is added to an aqueous buffer (50 mM citrate, pH 4) with mixing to a final ethanol and lipid concentration of 30% (vol/vol) and 6.1 mg/mL respectively and allowed to equilibrate at room temperature for 2 min before extrusion. The hydrated lipids are extruded through two stacked 80 nm pore-sized filters (Nuclepore) at 22° C. using a Lipex Extruder (Northern Lipids, Vancouver, BC) until a vesicle diameter of 70-90 nm, as determined by Nicomp analysis, is obtained. This generally required 1-3 passes.
The FVII siRNA (solubilised in a 50 mM citrate, pH 4 aqueous solution containing 30% ethanol) is added to the vesicles, pre-equilibrated to 35° C., at a rate of ˜5 mL/min with mixing. […]

[1] = Table 10, dose resulting in a 50% reduction in plasma FVII levels vs control animals, lipid formulation with FVII siRNA, i.v. tail vein, C57Bl/6 mice

Structure (SMILES) | ED50 [1] [mg/kg] | ED50 (in-line mixing formulation compound 1/DSPC/Chol/(C14)PEG-DMG 50/10/38.5/1.5, FIG. 1) [mg/kg] | ED50 (pre-formed vesicle (PFV) formulation compound 1/DSPC/Chol/(C14)PEG-DMG 40/10/40/10, FIG. 2) [mg/kg]
CCCCCC1CC1CC1CC1CCCCCCCCC(CCCCCCCCC1CC1CC1CC1CCCCC)OC(=O)CCCN(C)C (stereo not drawn) [Compound 1, 1,17-bis(2-((2-pentylcyclopropyl)methyl)cyclopropyl)heptadecan-9-yl 4-(dimethylamino)butanoate] | 0.12 | 0.01 | 0.12
CCCCC/C=C\C/C=C\CCCCCCCCC(CCCCCCCC/C=C\C/C=C\CCCCC)SSCCCCN(C)C [Compound 2] | 0.11 |  | 
CCCCC/C=C\C/C=C\CCCCCCCCC(CCCCCCCC/C=C\C/C=C\CCCCC)ON=CCCCN(C)C [Compound 3] | 0.06 |  | 
CCCCC/C=C\C/C=C\CCCCCCC[C@H]1OC2(CCN(C)CC2)O[C@@H]1CCCCCCC/C=C\C/C=C\CCCCC [Compound 4] | 0.07 |  | 
